# Experimental data reported in ChEMBL document CHEMBL1629524, “2-Azetidinone--a new profile of various pharmacological activities” (Eur J Med Chem, 2010).
# pIC50: −log10 of the molar value.
# Tests used:
# [1] = Inhibition of human Tryptase
# Pseudomonas aeruginosa = assay: Antimicrobial activity against Pseudomonas aeruginosa ATCC 10145; type: functional
# Chymase = target: T1, Chymase (Homo sapiens, UniProt P23946); assay: Inhibition of human Chymase
# T1 sequence (P23946 whole entry): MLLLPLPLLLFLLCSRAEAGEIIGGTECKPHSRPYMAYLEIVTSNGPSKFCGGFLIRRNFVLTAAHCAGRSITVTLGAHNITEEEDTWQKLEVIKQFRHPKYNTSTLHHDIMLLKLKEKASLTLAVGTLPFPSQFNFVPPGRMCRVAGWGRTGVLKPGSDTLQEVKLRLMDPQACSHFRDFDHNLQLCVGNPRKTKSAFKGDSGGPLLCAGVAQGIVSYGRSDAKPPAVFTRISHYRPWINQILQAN
# [2] = Chemical stability of the compound in human plasma assessed as half life; type: ADME, cell-free
# [3] = Inhibition of bovine brain tubulin polymerization; set-up: species or system Bos taurus
# Neutrophil elastase = target: T2, Neutrophil elastase (Homo sapiens, UniProt P08246); assay: Inhibition of human leukocyte elastase
# T2 sequence (P08246 whole entry): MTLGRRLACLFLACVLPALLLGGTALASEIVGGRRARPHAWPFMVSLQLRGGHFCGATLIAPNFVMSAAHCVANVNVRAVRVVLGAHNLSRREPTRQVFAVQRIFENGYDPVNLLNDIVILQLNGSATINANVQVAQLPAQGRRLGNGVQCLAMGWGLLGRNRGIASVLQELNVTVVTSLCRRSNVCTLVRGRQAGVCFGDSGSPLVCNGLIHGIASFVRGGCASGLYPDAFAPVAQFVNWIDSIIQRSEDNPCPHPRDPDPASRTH
# [4] = target: 72 kDa type IV collagenase (Homo sapiens, UniProt P08253); assay: Inhibition of MMP2
# 72 kDa type IV collagenase, sequence (P08253 whole entry): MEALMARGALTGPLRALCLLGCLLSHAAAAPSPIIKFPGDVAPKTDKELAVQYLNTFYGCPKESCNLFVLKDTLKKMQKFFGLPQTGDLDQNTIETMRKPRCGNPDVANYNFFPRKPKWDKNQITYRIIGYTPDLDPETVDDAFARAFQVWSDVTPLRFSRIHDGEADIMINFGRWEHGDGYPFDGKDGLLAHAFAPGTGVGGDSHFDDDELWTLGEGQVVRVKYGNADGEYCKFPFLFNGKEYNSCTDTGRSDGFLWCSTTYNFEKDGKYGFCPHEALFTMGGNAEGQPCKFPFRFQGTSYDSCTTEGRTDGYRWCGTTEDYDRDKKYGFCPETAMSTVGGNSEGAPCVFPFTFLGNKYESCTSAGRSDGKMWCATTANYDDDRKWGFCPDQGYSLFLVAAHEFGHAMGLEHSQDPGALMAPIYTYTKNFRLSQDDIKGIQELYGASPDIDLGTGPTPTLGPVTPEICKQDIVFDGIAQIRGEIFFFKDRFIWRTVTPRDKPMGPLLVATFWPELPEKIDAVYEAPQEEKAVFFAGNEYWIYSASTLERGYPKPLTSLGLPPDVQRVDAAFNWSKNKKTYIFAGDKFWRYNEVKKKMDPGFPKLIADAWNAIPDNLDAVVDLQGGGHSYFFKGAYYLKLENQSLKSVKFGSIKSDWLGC
# Rhesus monkey = assay: Antidyslipidemic activity in cholesterol-fed rhesus monkey assessed as reduction in plasma cholesterol; type: functional; conditions: Macaca mulatta
# Hamster [5] = assay: Antidyslipidemic activity in hamster assessed as reduction in hepatic cholesteryl esters; type: functional; conditions: Cricetinae
# HepG2 = assay: Antidyslipidemic activity in human HepG2 cells assessed as inhibition of cholesterol esterification; type: functional, cell-based
# [6] = Antidyslipidemic activity in rat hepatic microsomes assessed as inhibition of […]; type: functional, Liver
# Hamster [7] = assay: Antidyslipidemic activity in cholesterol-fed hamster assessed as reduction in plasma cholesterol; type: functional; conditions: Cricetinae
# Rattus norvegicus = organism: Rattus norvegicus; assay: Antidyslipidemic activity in cholesterol-fed rat assessed as reduction in plasma cholesterol; type: functional
# Caco-2 = assay: Antidyslipidemic activity in human Caco2 cells assessed as inhibition of cholesterol esterification; type: functional, cell-based
# Hamster [8] = assay: Antidyslipidemic activity in cholesterol-fed hamster model assessed as reduction in liver cholesteryl esters; type: functional; conditions: Cricetinae
# Canis familiaris = organism: Canis familiaris; assay: Antidyslipidemic activity in cholesterol-fed Dog assessed as reduction in plasma cholesterol level; type: functional; conditions: Canis lupus familiaris
# [9] = Inhibition of human cytomegalovirus protease; set-up: species or system Human betaherpesvirus 5
structure (smiles),measurement,setting,value
N=C(N)N1CCC[C@H](C[C@H]2C(=O)N(C(=O)N3CCN(C(=O)CCCCCc4ccccc4)CC3)[C@@H]2C(=O)O)C1,pIC50,[1],> 8.77
N=C(N)N1CCC[C@@H](C[C@H]2C(=O)N(C(=O)N3CCN(C(=O)CCCCCc4ccccc4)CC3)[C@@H]2C(=O)O)C1,pIC50,[1],> 8.77
CC(C)(C)NC(=O)N1CCN(C(=O)N2C(=O)[C@H](CCCN=C(N)N)[C@H]2C(=O)O)CC1,pIC50,[1],8.40
O=C1N(c2ccccc2)C(c2ccc([N+](=O)[O-])cc2)C1(Cl)Cl (stereo unspecified),MIC,Pseudomonas aeruginosa,125 µg/mL
C[C@@H](NC(=O)N1C(=O)[C@@H](Cc2ccccc2)[C@H]1Oc1ccc(N2CCN(C)CC2)cc1)c1ccccc1,pIC50,Chymase,9.34
CCOc1ccccc1C[C@@H]1C(=O)N(C(=O)NC(c2ccccc2)c2ccccc2)[C@@H]1Oc1ccc(C(=O)O)cc1,pIC50,Chymase,8.51
same,half-life,[2],6 h
O=C(O)[C@@H]1[C@@H](CCC2CCCNC2)C(=O)N1C(=O)N1CCN(C(=O)CCCCCc2ccccc2)CC1 (stereo partly specified),pIC50,[1],8.74
COc1ccc(C2C(O)C(=O)N2c2ccccc2)cc1N (stereo unspecified),pIC50,[3],5.30
CCOC(=O)/C=C1\[C@@H](C(C)O[Si](C)(C)C(C)(C)C)C(=O)N1C(=O)c1cc(OCc2ccccc2)c(OCc2ccccc2)c(OCc2ccccc2)c1 (stereo partly specified),pIC50,Neutrophil elastase,6.30
CCOC(=O)/C=C1\NC(=O)[C@@H]1[C@@H](C)OC(=O)c1cc(OCc2ccccc2)c(O)c(OCc2ccccc2)c1,pIC50,[4],5.40
COc1ccc([C@@H]2[C@@H](CCCc3ccccc3)C(=O)N2c2ccc(OC)cc2)cc1 [SCH-48461],ED50,Rhesus monkey,0.2 mg/kg/day
same,ED50,Hamster [5],2 mg/kg/day
same,pIC50,HepG2,4.66
same,pIC50,[6],4.59
same,ED50,Hamster [7],1 mg/kg/day
same,ED50,Rattus norvegicus,2 mg/kg/day
same,pIC50,Caco-2,4.49
COc1ccc(C2N(c3ccc(OC)cc3)C(=O)C2(Cl)Cl)cc1 (stereo unspecified),MIC,Pseudomonas aeruginosa,125 µg/mL
Cc1ccc(C2N(c3ccc(C)cc3)C(=O)C2(Cl)Cl)cc1 (stereo unspecified),MIC,Pseudomonas aeruginosa,125 µg/mL
O=C1N(c2ccccc2)C(c2ccccc2)C1(Cl)Cl (stereo unspecified),MIC,Pseudomonas aeruginosa,125 µg/mL
O=C1N(c2ccc(Cl)cc2)C(c2ccc(Cl)cc2)C1(Cl)Cl (stereo unspecified),MIC,Pseudomonas aeruginosa,125 µg/mL
O=C1[C@H](CC[C@H](O)c2ccc(F)cc2)[C@@H](c2ccc(O)cc2)N1c1ccc(F)cc1 [EZETIMIBE],ED50,Rhesus monkey,0.5 µg/kg
same,ED50,Hamster [8],0.04 mg/kg/day
same,ED50,Canis familiaris,0.007 mg/kg/day
CC[C@@H](NC(=O)N1C(=O)CC1SC[C@H](CC(C)C)NC(=O)[C@@H](NC(=O)CC(C)(C)C)C(C)(C)C)c1ccccc1 (stereo partly specified),pIC50,[9],7.15
